{
  "source": "paper PMC10560236",
  "about": "“A protein kinase C α and β inhibitor blunts hyperphagia to halt renal function decline and reduces adiposity in a rat model of obesity-driven type 2 diabetes” (Scientific Reports, 2023)",
  "key": {"PKCα": {"target": "PKCα (Homo sapiens, UniProt P17252)", "experiment": "Z'-Lyte recombinant enzyme assay, PKCα", "format": "biochemical", "method": "(§1) Half maximal inhibitory concentrations of Cmpd 1 were determined by Z’-Lyte biochemical assays (Life Technologies SelectScreen™ Kinase Profiling Services, Thermo Fisher Scientific). Kinome selectivity was determined at 1 μM Cmpd 1 concentration against a panel of 119 kinases. The original kinome tree in Fig. 1b was taken from Ref.[68]."}, "PKCβ1": {"target": "PKCβ1 (Homo sapiens, UniProt P05771)", "sequence (P05771 whole entry)": "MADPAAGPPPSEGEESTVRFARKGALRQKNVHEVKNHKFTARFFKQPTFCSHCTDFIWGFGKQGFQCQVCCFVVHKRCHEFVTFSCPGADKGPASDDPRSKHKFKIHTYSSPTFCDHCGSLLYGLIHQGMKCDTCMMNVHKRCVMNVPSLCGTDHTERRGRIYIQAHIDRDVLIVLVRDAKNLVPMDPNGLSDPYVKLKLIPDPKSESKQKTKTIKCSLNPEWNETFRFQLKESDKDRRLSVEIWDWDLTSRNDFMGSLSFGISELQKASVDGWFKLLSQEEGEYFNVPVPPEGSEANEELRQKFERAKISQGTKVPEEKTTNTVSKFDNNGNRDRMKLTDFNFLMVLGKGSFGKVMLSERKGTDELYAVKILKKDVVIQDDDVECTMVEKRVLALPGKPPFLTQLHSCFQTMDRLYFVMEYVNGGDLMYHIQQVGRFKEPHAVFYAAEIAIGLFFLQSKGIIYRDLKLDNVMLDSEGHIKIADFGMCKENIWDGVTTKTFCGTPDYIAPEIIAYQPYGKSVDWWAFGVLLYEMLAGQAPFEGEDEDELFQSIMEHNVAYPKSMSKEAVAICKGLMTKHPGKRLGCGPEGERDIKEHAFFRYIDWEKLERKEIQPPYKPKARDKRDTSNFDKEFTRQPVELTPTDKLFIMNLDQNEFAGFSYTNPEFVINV", "experiment": "Z'-Lyte recombinant enzyme assay, PKCβ1", "format": "biochemical", "method": "as §1"}, "PKCη": {"target": "PKCη (Homo sapiens, UniProt P24723)", "sequence (P24723 whole entry)": "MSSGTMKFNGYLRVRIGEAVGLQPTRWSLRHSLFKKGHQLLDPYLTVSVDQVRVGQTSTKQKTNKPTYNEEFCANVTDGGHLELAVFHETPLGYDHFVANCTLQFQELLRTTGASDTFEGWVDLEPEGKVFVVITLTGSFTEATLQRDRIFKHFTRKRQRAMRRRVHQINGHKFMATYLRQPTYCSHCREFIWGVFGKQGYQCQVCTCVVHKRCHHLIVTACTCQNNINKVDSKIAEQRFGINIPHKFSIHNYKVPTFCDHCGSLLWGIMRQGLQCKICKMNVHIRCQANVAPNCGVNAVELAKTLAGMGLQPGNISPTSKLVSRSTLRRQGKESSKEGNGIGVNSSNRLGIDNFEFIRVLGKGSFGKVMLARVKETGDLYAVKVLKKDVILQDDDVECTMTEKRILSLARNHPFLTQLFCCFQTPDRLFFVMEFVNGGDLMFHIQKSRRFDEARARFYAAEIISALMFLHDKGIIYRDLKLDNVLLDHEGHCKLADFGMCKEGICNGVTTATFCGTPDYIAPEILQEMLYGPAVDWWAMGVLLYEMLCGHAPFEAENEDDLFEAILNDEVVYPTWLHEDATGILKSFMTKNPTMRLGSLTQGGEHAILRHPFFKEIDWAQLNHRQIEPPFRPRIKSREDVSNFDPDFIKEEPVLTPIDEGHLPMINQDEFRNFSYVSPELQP", "experiment": "Z'-Lyte recombinant enzyme assay, PKCη", "format": "biochemical", "method": "as §1"}, "PKCι": {"target": "T1, PKCι (Homo sapiens, UniProt P41743)", "T1 sequence (P41743 1-596)": "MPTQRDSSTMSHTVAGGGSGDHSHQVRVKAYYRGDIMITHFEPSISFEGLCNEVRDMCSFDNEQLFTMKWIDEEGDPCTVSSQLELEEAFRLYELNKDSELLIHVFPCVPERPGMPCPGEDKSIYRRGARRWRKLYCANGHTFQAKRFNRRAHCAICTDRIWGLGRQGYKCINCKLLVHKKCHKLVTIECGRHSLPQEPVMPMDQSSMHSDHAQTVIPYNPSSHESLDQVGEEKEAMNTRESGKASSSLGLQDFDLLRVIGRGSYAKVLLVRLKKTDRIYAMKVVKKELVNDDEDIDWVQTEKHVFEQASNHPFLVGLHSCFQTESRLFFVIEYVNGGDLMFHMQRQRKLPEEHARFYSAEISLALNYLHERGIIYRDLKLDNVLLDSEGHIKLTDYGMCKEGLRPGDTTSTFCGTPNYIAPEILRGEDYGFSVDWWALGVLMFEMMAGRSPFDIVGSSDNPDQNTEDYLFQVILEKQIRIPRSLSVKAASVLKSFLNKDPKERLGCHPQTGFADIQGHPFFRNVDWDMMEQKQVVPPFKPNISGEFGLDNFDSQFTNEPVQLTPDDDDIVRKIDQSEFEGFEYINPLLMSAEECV", "experiment": "Z'-Lyte recombinant enzyme assay, PKCι", "format": "biochemical", "method": "as §1"}, "panel of 119 kinases": {"system": "panel of 119 kinases", "experiment": "Kinome selectivity profiling", "format": "biochemical", "conditions": "1 μM Cmpd 1, panel of 119 kinases", "method": "as §1"}, "[1]": {"system": "HEK293 cells overexpressing PKCβ2", "experiment": "PMA-induced IL-8 production in HEK293 cells over-expressing PKCβ2", "format": "cell-based", "conditions": "HEK293 over-expressing PKCβ2, 3 nM PMA, 4-h supernatants; read-out: IC50, inhibition of IL-8 production in response to PMA", "method": "For the HEK293 cell-based assay, HEK293 cells engineered to over-express full-length PKCβ2 were stimulated with 3 nM PMA in DMEM media supplemented with 0.5% FBS. 4-h cell culture supernatants were analyzed for IL-8 by MSD (Rockville, MD)."}, "[2]": {"system": "intact glomeruli isolated from SD rats", "experiment": "PMA-luminol ROS assay in intact glomeruli", "format": "cell-based", "conditions": "intact SD rat glomeruli, 16 μM PMA, luminol luminescence; read-out: IC50, PMA-induced ROS production (change in velocity)", "method": "For the phorbol 12-myristate 13-acetate (PMA)-luminol assay, glomeruli isolated from PBS-perfused kidneys were diluted in an HBSS solution containing 1 mM luminol, 0.1 M HEPES, and 0.1% fatty-acid free BSA. Approximately 3000 glomeruli were plated per well in a 96-well white OPTI-plate (Perkin Elmer 6005290). The reaction was started by the addition of PMA to a final concentration of 16 μM in the absence or presence of increasing Cmpd 1. Luminol luminescence was read on an Envision plate reader in kinetic read mode."}, "[3]": {"experiment": "4-day pharmacokinetic study with chow dosing", "format": "in vivo, rat", "conditions": "ZSF1 obese rats, chow dosing approx. 50 mpk/day, corrected for plasma protein binding", "method": "Three male 12-week old ZSF1 obese rats were fed control or 0.744 g/kg Cmpd 1 chow for 4 days. Food consumption was estimated by measuring food provided versus food remaining in the hopper. Blood was collected through tail vein from each animal at 9 a.m. and 4 p.m. 2 days after chow dosing started, and at 9 a.m. four days after chow dosing started, for PK determination. Plasma protein binding of Cmpd 1 was measured by equilibrium dialysis of the in vitro fraction unbound of Cmpd 1 at a concentration of […] in plasma from pooled male and female CD-1 mice. Plasma was centrifuged and supernatant was analyzed by liquid chromatography–tandem mass spectrometry to detect Cmpd 1 (York Bioanalytical Solutions; York, UK)."}, "ZSF1 obese rats [4]": {"system": "ZSF1 obese rats", "experiment": "7-day food consumption and body weight study, Cmpd 1 chow, ZSF1 obese rats", "format": "in vivo, rat", "conditions": "7 days", "description": "To evaluate food consumption in different rat strains, cohorts of 10 male ZSF1 obese rats, 8 male ZSF1 lean littermate rats, and 10 age-matched male Sprague Dawley (SD) rats were divided into two groups and fed chow with or without 0.744 g/kg Cmpd 1 (Cmpd 1 chow) for 7 days."}, "ZSF1 obese rats [5]": {"system": "ZSF1 obese rats", "experiment": "7-day oral gavage study, food consumption and body weight", "format": "in vivo, rat", "conditions": "100 mpk daily oral gavage, 7 days"}},
  "data": [
    {"smiles": "Cc1ncc(F)c(Nc2n[nH]c3c2CN(C(=O)N2C[C@@H](C)N(CC4CCOCC4)C[C@@H]2C)C3(C)C)n1", "note": "[Cmpd 1, 5-[(2S,5R)-2,5-dimethyl-4-(tetrahydro-2H-pyran-4-ylmethyl)piperazin-l-yl]carbonyl-N-(5-fluoro-2-methylpyrimidin-4-yl)-6,6-dimethyl-1,4,5,6-tetrahydropyrrolo[3,4-c]pyrazol-3-amine]", "values": [
      {"measurement": "IC50", "setting": "PKCα", "value": 2, "unit": "nM"},
      {"measurement": "IC50", "setting": "PKCβ1", "value": 11, "unit": "nM"},
      {"measurement": "IC50", "setting": "PKCη", "value": 1520, "unit": "nM"},
      {"measurement": "IC50", "setting": "PKCι", "value": "> 10000", "unit": "nM"},
      {"measurement": "Kinome selectivity", "setting": "panel of 119 kinases", "value": "good selectivity"},
      {"measurement": "IC50", "setting": "[1]", "value": 26, "unit": "nM"},
      {"measurement": "IC50", "setting": "[2]", "value": 76, "unit": "nM"},
      {"measurement": "Free drug concentration in serum, evening", "setting": "[3]; 4 p.m.", "value": "~400", "unit": "nM"},
      {"measurement": "Free drug concentration in serum, morning", "setting": "[3]; 9 a.m.", "value": "roughly 700 nM"},
      {"measurement": "Average food consumption", "setting": "ZSF1 obese rats [4]", "value": 24, "unit": "g/day"},
      {"measurement": "Body weight change", "setting": "ZSF1 obese rats [4]", "value": "lost weight"},
      {"measurement": "Reduction in food consumption versus no-drug chow", "setting": "ZSF1 obese rats [4]", "value": 37, "unit": "%"},
      {"measurement": "Animal body weights", "setting": "ZSF1 obese rats [5]", "value": "decreased"},
      {"measurement": "Food consumption", "setting": "ZSF1 obese rats [5]", "value": "decreased"}
    ]}
  ]
}
